Laboratory results published in patent US12569495B2, “Inhibitors of porcine reproductive and respiratory syndrome virus” (UNIVERSITY OF CONNECTICUT, priority 2020, dated 2026).
“And” between values parts separate entries of the source, which are not always exact repeats. Identical values can stand only once.

Columns and labels:
[1] = system: 3 Type II PRRSV strains (VR-2332, SDSU73, NADC30); experiment: PRRSV titration assay, Type II strains; assay type: cell-based; details: 15 μM; PAMs; 24 h
Method: For PRRSV infection of PAM cells, PAMs were seeded one day prior to infection. Control cells were treated with DMSO and test cells were treated with the selected screening compounds (5-20 μM) for 4 h before inoculation, during the 1 h PRRSV inoculation, and for 24 h after inoculation. Cells were inoculated with VR-2332, SDSU73, NADC30 or Lelystad PRRSV at MOI=0.1 for 1 h. The 24 h cell medium supernatant was stored at −80° C. until use.
For PRRSV titration assay, MARC145 cells were seeded in 48-well plates and grew to ˜80% density before inoculation. Viral supernatants were prepared by 10-fold serial dilution, and 100 μl of the dilutions was added per well in six replicates. Inocula were removed from cells after 2 h and replaced with 0.5 mL of DMEM supplemented with 2% FBS, 2 mM glutamine, 0.1 mM MEM non-essential amino acids, 50 U/mL penicillin, and 50 μg/mL streptomycin (Invitrogen). Cells were cultured at 37° C. for 6 days and any cytopathic effects were observed and recorded. The PRRSV titer was calculated using the Reed and Muench method and expressed as median tissue culture infectious dose (TCID50/mL). Reed and Muench, Am. J. Epidemiol. 27(3): 493-497 (1938).
The inhibitory effect of B7 was further tested on multiple strains of PRRSV. […]

[2] = Rat acute toxicity study; assay type: in vivo, Sprague Dawley laboratory male rats
Method: The study was conducted as: • 1. Eight 10-week Sprague Dawley laboratory male rats (˜260 g each) were randomly selected into two groups (n=4), with group 1 for control and group 2 for B7-treatment. • 2. Day 0, injection of B7 drug. The intramuscular (IM) injection was vehicle for group 1, and 4 mg/kg B7 per rat for group 2, with 0.15 mL of volume per rat, to the left thigh region. The B7 was dissolved in vehicle containing 30% DMSO and 50% propylene glycol (PG), and 20% 20 mM Tris·HCl, pH 8.0. • 3. Days 1-7 observation of rats with daily body weight and temperature measurement and making records of any abnormal behavior. • 4. Day 7 necropsy: Euthanize the rats with CO2, immediately followed by blood sample collection from heart. Conduct postmortem rat gross-anatomic pathology analysis (brain, heart, lung, liver, kidney, spleen). • 5. Conduct clinical pathology analysis (CBC/Chemistry by IDDEX Bioanalytics) for the collected blood samples.

[3] = rat, IM 4 mg/kg, Day 7 blood, mean n=4

Compound: Cc1cc(F)ccc1S(=O)(=O)Nc1nc2ccccc2nc1Nc1cccc(S(=O)(=O)N2CCOCC2)c1 [Compound B7, 4-fluoro-2-methyl-N-[3-(3-morpholin-4-ylsulfonylanilino)quinoxalin-2-yl]benzenesulfonamide]
- log reduction of viral titers across the 3 Type II PRRSV strains [1]: 2.8-3.1 log
- Lipemia Index ([2]; rat, IM 4 mg/kg, Day 7 blood): Normal
- ALB/GLOB ratio [2, 3]: 1.2
- ALP [2, 3]: 277.5 U/L
- ALT [2, 3]: 95.5 U/L
- AST [2, 3]: 210.3 U/L and 210.25 U/L
- Albumin [2, 3]: 3.5 g/dL
- BUN [2, 3]: 16.8 mg/dL
- BUN/Creatinine Ratio [2, 3]: 76.7
- Basophil [2, 3]: 13.5 µL⁻¹
- Basophils (%) [2, 3]: 0.3%
- Bicarbonate TCO2 [2, 3]: 32.8 mmol/L
- Bilirubin - Conjugated [2, 3]: 0.0 mg/dL
- Bilirubin - Unconjugated [2, 3]: 0.1 mg/dL
- Calcium [2, 3]: 11.8 mg/dL
- Chloride [2, 3]: 97.0 mmol/L
- Cholesterol [2, 3]: 76.0 mg/dL
- Creatine kinase [2, 3]: 585.5 U/L
- Creatinine [2, 3]: 0.2 mg/dL
- Eosinophil [2, 3]: 19.0 µL⁻¹
- Eosinophils (%) [2, 3]: 0.5%
- Globulin [2, 3]: 2.9 g/dL
- Glucose [2, 3]: 175.5 mg/dL
- HCT [2, 3]: 50.1% and 50.075%
- HGB [2, 3]: 14.4 g/dL and 14.35 g/dL
- Lymphocyte [2, 3]: 3188.0 µL⁻¹
- Lymphocytes (%) [2, 3]: 83.1% and 83.125%
- MCH [2, 3]: 18.9 pg
- MCHC [2, 3]: 28.7 g/dL
- MCV [2, 3]: 65.8 fL
- Monocyte [2, 3]: 179.5 µL⁻¹
- Monocytes (%) [2, 3]: 4.8%
- NA/K Ratio [2, 3]: 22.3
- Neutrophil [2, 3]: 425.0 µL⁻¹
- Neutrophil (%) [2, 3]: 11.4% and 11.35%
- Phosphorus [2, 3]: 13.0 mg/dL
- Potassium [2, 3]: 6.7 mmol/L
- RBC [2, 3]: 7.6 M/μL L
- Sodium [2, 3]: 145.8 mmol/L
- Total Bilirubin [2, 3]: 0.1 mg/dL
- Total Protein [2, 3]: 6.4 g/dL
- WBC [2, 3]: 3.8 K/μL
- blood cell counts, B7-treatment versus control ([2]; single IM 4 mg/kg, Day 7): no obvious change for blood cell counts
- blood chemistry analysis, B7 versus control ([2]; single IM 4 mg/kg, Day 7): only ALP and AST were changed slightly with statistical significances
- gross pathology, kidney ([2]; single IM 4 mg/kg, Day 7 necropsy, T4 = B7 rat): cortical surface of kidney had multiple, mild tan discolorations
- gross pathology, liver ([2]; single IM 4 mg/kg, Day 7 necropsy, T = B7 rats, C = control rats): multifocal to coalescing mild pale tan discoloration on the surface of liver of C2, T3 and T4
- daily weight gain and body temperature ([2]; single IM 4 mg/kg, Days 1-7): normal daily weigh gain and body temperature
- signs of abnormality during the 7-day study ([2]; single IM 4 mg/kg, n=4): No signs of abnormality were observed
